Data published in ChEMBL document CHEMBL1145522, “Recognition of trimethyllysine by a chromodomain is not driven by the hydrophobic effect” (Proc Natl Acad Sci U S A, 2007).

Experiment: Binding affinity to Drosophila HP1 chromodomain by fluorescence polarization assay

- Kd: > 1000 µM
SMILES: C[C@H](N)C(=O)N[C@@H](CCCNC(=N)N)C(=O)N[C@H](C(=O)N[C@@H](CCCCN)C(=O)N[C@@H](CCC(N)=O)C(=O)N[C@H](C(=O)N[C@@H](C)C(=O)N[C@@H](CCCNC(=N)N)C(=O)N[C@@H](CCCCN)C(=O)N[C@@H](CO)C(=O)N[C@H](C(=O)NCC(=O)NCC(=O)N[C@@H](CCCCN)C(=O)N[C@@H](C)C(=O)N[C@@H](Cc1ccc(O)cc1)C(=O)O)[C@@H](C)O)[C@@H](C)O)[C@@H](C)O
